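Compound exposure: 48 hours, 5 concentrations, 96-well plates. GI50 = concentration required for 50% inhibition of growth.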 Calls of active or inactive are those of the source. Cut-off read from the data, not from the text of the source: active = GI50 up to about 1.1 µM and inactive = higher.
Columns and labels:
Test in all cases: NCI tumour cell line growth inhibition, 48 h
786-0 = system: 786-0
A498 = system: A498
A549 = system: A549
ACHN = system: ACHN
BT-549 = system: BT-549
CAKI-1 = system: CAKI-1
CCRF-CEM = system: CCRF-CEM
COLO 205 = system: COLO 205
DLD-1 = system: DLD-1
DMS-114 = system: DMS-114
DMS-273 = system: DMS-273
DU-145 = system: DU-145
EKVX = system: EKVX
HCC 2998 = system: HCC 2998
HCT-116 = system: HCT-116
HCT-15 = system: HCT-15
HL-60 = system: HL-60
HOP-18 = system: HOP-18
HOP-62 = system: HOP-62
HOP-92 = system: HOP-92
HT-29 = system: HT-29
Hs-578T = system: Hs-578T
IGROV-1 = system: IGROV-1
K562 = system: K562
KM-20L2 = system: KM-20L2
KM12 = system: KM12
LOX IMVI = system: LOX IMVI
LXFL 529 = system: LXFL 529
M14 = system: M14
M19-MEL = system: M19-MEL
MCF7 = system: MCF7
MDA-MB-231 = system: MDA-MB-231
MDA-MB-435 = system: MDA-MB-435
MDA-N = system: MDA-N
MOLT-4 = system: MOLT-4
Malme-3M = system: Malme-3M
NCI-H226 = system: NCI-H226
NCI-H23 = system: NCI-H23
NCI-H460 = system: NCI-H460
NCI-H522 = system: NCI-H522
NCI/ADR-RES = system: NCI/ADR-RES
OVCAR-3 = system: OVCAR-3
OVCAR-4 = system: OVCAR-4
OVCAR-5 = system: OVCAR-5
OVCAR-8 = system: OVCAR-8
PC-3 = system: PC-3
RPMI-8226 = system: RPMI-8226
RXF 393 = system: RXF 393
RXF 631 = system: RXF 631
SF-268 = system: SF-268
SF-295 = system: SF-295
SF-539 = system: SF-539
SK-MEL-28 = system: SK-MEL-28
SK-MEL-2 = system: SK-MEL-2
SK-MEL-5 = system: SK-MEL-5
SK-OV-3 = system: SK-OV-3
SN12C = system: SN12C
SNB-19 = system: SNB-19
SNB-75 = system: SNB-75
SNB-78 = system: SNB-78
SR = system: SR
SW-620 = system: SW-620
T47D = system: T47D
TK-10 = system: TK-10
U-251 = system: U-251
UACC-257 = system: UACC-257
UACC-62 = system: UACC-62
UO-31 = system: UO-31
XF498 = system: XF498

CNC(=O)/C(=C/c1ccc(OC)cc1)c1cc(OC)c(OC)c(OC)c1
GI50 (786-0): 3.47 µM (inactive)
GI50 (A498): 3.51 µM (inactive)
GI50 (A549): 1.69 µM (inactive)
GI50 (ACHN): 8.65 µM (inactive)
GI50 (BT-549): 50.8 µM (inactive)
GI50 (CAKI-1): 2.47 µM (inactive)
GI50 (CCRF-CEM): 2.32 µM (inactive)
GI50 (COLO 205): 1.16 µM (inactive)
GI50 (DLD-1): 2.25 µM (inactive)
GI50 (DMS-114): 2.3 µM (inactive)
GI50 (DMS-273): 0.516 µM (active)
GI50 (DU-145): 2.74 µM (inactive)
GI50 (EKVX): 10.1 µM (inactive)
GI50 (HCC 2998): 2.45 µM (inactive)
GI50 (HCT-116): 1.55 µM (inactive)
GI50 (HCT-15): 0.743 µM
GI50 (HL-60): 0.493 µM (active)
GI50 (HOP-18): > 71.1 µM (inactive)
GI50 (HOP-62): 2.27 µM (inactive)
GI50 (HOP-92): 13.9 µM (inactive)
GI50 (HT-29): 0.593 µM (active)
GI50 (Hs-578T): 1.61 µM (inactive)
GI50 (IGROV-1): 4.76 µM (inactive)
GI50 (K562): 0.546 µM (active)
GI50 (KM-20L2): 1.28 µM (inactive)
GI50 (KM12): 0.598 µM (active)
GI50 (LOX IMVI): 4.88 µM (inactive)
GI50 (LXFL 529): 4.43 µM (inactive)
GI50 (M14): 1.45 µM (inactive)
GI50 (M19-MEL): 1.74 µM (inactive)
GI50 (MCF7): 0.769 µM (active)
GI50 (MDA-MB-231): 6.14 µM (inactive)
GI50 (MDA-MB-435): 0.281 µM (active)
GI50 (MDA-N): 0.206 µM (active)
GI50 (MOLT-4): 2.33 µM (inactive)
GI50 (Malme-3M): 0.887 µM (active)
GI50 (NCI-H226): 10.3 µM (inactive)
GI50 (NCI-H23): 3.52 µM (inactive)
GI50 (NCI-H460): 1.47 µM (inactive)
GI50 (NCI-H522): 0.735 µM (active)
GI50 (NCI/ADR-RES): 1.98 µM (inactive)
GI50 (OVCAR-3): 0.641 µM (active)
GI50 (OVCAR-4): 21.3 µM (inactive)
GI50 (OVCAR-5): 20.7 µM (inactive)
GI50 (OVCAR-8): 4.12 µM (inactive)
GI50 (PC-3): 1.03 µM (active)
GI50 (RPMI-8226): 2.99 µM (inactive)
GI50 (RXF 393): 1.99 µM (inactive)
GI50 (RXF 631): 7.45 µM (inactive)
GI50 (SF-268): 4.83 µM (inactive)
GI50 (SF-295): 0.552 µM (active)
GI50 (SF-539): 1.34 µM (inactive)
GI50 (SK-MEL-28): 2.77 µM (inactive)
GI50 (SK-MEL-2): 3.89 µM (inactive)
GI50 (SK-MEL-5): 0.593 µM (active)
GI50 (SK-OV-3): 1.6 µM (inactive)
GI50 (SN12C): 5.2 µM (inactive)
GI50 (SNB-19): 4.58 µM (inactive)
GI50 (SNB-75): 1.14 µM (inactive)
GI50 (SNB-78): 4.94 µM (inactive)
GI50 (SR): 0.513 µM (active)
GI50 (SW-620): 0.802 µM (active)
GI50 (T47D): > 100 µM (inactive)
GI50 (TK-10): > 44.1 µM (inactive)
GI50 (U-251): 2.81 µM (inactive)
GI50 (UACC-257): 5.08 µM (inactive)
GI50 (UACC-62): 0.67 µM (active)
GI50 (UO-31): 6.44 µM (inactive)
GI50 (XF498): 4.95 µM (inactive)

C[C@]12CCC(=O)C=C1CC[C@@H]1[C@@H]2CC[C@]2(C)C(=O)NC(=O)C[C@@H]12
GI50 (786-0): > 100 µM (inactive)
GI50 (A498): > 100 µM (inactive)
GI50 (A549): > 100 µM (inactive)
GI50 (ACHN): > 100 µM (inactive)
GI50 (CAKI-1): > 100 µM (inactive)
GI50 (CCRF-CEM): > 100 µM (inactive)
GI50 (COLO 205): > 100 µM (inactive)
GI50 (DLD-1): > 100 µM (inactive)
GI50 (DMS-114): > 100 µM (inactive)
GI50 (DMS-273): > 100 µM (inactive)
GI50 (EKVX): > 100 µM (inactive)
GI50 (HCC 2998): > 100 µM (inactive)
GI50 (HCT-116): > 100 µM (inactive)
GI50 (HCT-15): > 100 µM
GI50 (HL-60): > 100 µM (inactive)
GI50 (HOP-18): > 100 µM (inactive)
GI50 (HOP-62): > 100 µM (inactive)
GI50 (HOP-92): > 100 µM (inactive)
GI50 (HT-29): > 100 µM (inactive)
GI50 (IGROV-1): > 100 µM (inactive)
GI50 (K562): > 100 µM (inactive)
GI50 (KM-20L2): > 100 µM (inactive)
GI50 (KM12): > 100 µM (inactive)
GI50 (LOX IMVI): > 100 µM (inactive)
GI50 (LXFL 529): > 100 µM (inactive)
GI50 (M14): > 100 µM (inactive)
GI50 (M19-MEL): > 100 µM (inactive)
GI50 (MOLT-4): > 100 µM (inactive)
GI50 (Malme-3M): > 100 µM (inactive)
GI50 (NCI-H226): > 100 µM (inactive)
GI50 (NCI-H23): > 100 µM (inactive)
GI50 (NCI-H460): > 100 µM (inactive)
GI50 (NCI-H522): > 100 µM (inactive)
GI50 (OVCAR-3): > 100 µM (inactive)
GI50 (OVCAR-4): > 100 µM (inactive)
GI50 (OVCAR-5): > 100 µM (inactive)
GI50 (OVCAR-8): > 100 µM (inactive)
GI50 (RPMI-8226): > 100 µM (inactive)
GI50 (RXF 393): > 100 µM (inactive)
GI50 (RXF 631): > 100 µM (inactive)
GI50 (SF-268): > 100 µM (inactive)
GI50 (SF-295): > 100 µM (inactive)
GI50 (SF-539): > 100 µM (inactive)
GI50 (SK-MEL-28): > 100 µM (inactive)
GI50 (SK-MEL-2): > 100 µM (inactive)
GI50 (SK-MEL-5): > 100 µM (inactive)
GI50 (SK-OV-3): > 100 µM (inactive)
GI50 (SN12C): > 100 µM (inactive)
GI50 (SNB-19): > 100 µM (inactive)
GI50 (SNB-75): > 100 µM (inactive)
GI50 (SNB-78): > 100 µM (inactive)
GI50 (SR): > 100 µM (inactive)
GI50 (SW-620): > 100 µM (inactive)
GI50 (TK-10): > 100 µM (inactive)
GI50 (U-251): > 100 µM (inactive)
GI50 (UACC-257): > 100 µM (inactive)
GI50 (UACC-62): > 100 µM (inactive)
GI50 (UO-31): > 100 µM (inactive)
GI50 (XF498): > 100 µM (inactive)
